{"source": "patent US20100159021A1", "about": "“Small Molecule Ligands of the Integrin RGD Recognition Site and Methods of Use” (priority 2008, published 2010)", "key": {"MDA-MB-231 cells": {"test_system": "MDA-MB-231 cells", "assay": "RNA microarray of differentially-regulated genes", "type": "cell-based, human", "conditions": "FIG. 9"}, "[1]": {"test_system": "human breast cancer (MDA-MB-231) cell line", "assay": "anti-proliferative activity in CESCO bellows bottle perfusion model", "type": "cell-based", "conditions": "144 h, MDA MB 231 cells in vitro, exposure for 6 days with daily refreshment, read-out: anti-proliferative (pro-apoptotic) IC50", "experimental": "FIGS. 8A and 8B depict the anti-proliferative activities of unmodified tetrac, unmodified resveratrol (RV) and the combination thereof against a human breast cancer (MDA-MB-231) cell line in vitro. The cell line is estrogen receptor (ER)-negative. The test system is a CESCO bellows bottle perfusion model in which cancer cells adhere to plastic flakes and are then exposed to continuous, recycled flow of chemotherapeutic agent in an oxygenated environment. Polyphenol (10 μM) or tetrac (0.1 μM) in DMEM buffer, supplemented with fetal bovine serum, are refreshed daily. […] Results shown are means of triplicate experiments.\nMDA-MB cells were seeded in perfusion CESCO bellow bottles. Cells were refreshed with 1% FBS containing DMEM after 24 h incubation. Cells were then treated with tetrac (10^−7 M), or resveratrol (0.1 mM) or both. Resveratrol was added daily and tetrac was added every three days. Cells were harvested as indicated dates and counted."}}}
{"smiles": "Oc1ccc(C=Cc2cc(O)cc(O)c2)cc1", "note": "[resveratrol]", "values": [{"measurement": "expression of pro-apoptotic genes CASP2 and NLRP1 (NALP1)", "setting": "MDA-MB-231 cells; 10 μM, 24 h", "value": "upregulated"}, {"measurement": "expression of tumor markers FTCD (hepatoma) and leukemogenic FUS gene", "setting": "MDA-MB-231 cells; 10 μM, 24 h", "value": "suppressed"}, {"measurement": "expression of cancer-relevant genes FUS, AAKJ, USP6 (Tre6)", "setting": "MDA-MB-231 cells", "value": "downregulated"}, {"measurement": "IC50", "setting": "[1]", "value": 100, "unit": "nM"}]}
